Among the data in patent US12435058B2, “KIF18A inhibitors” (AMGEN INC., priority 2019, dated 2025) are IC50 values, retold here.

The target in the test is T1, Recombinant human KIF18A (1-467 His-tagged) protein (Homo sapiens, UniProt Q8NI77).
T1 construct: Recombinant human KIF18A (1-467 His-tagged) protein; His; made in house
In words: KIF18A Enzyme Assay (microtubule-stimulated ATPase activity, ADP-Glo). In kind it is biochemical. To be noted: KIF18A protein 30 nM, ATP 75 μM (at Km), 30 μg/mL pig microtubules, ADP-Glo luminescence. An excerpt: For compounds in Table A, the following assay conditions were employed:
KIF18A Enzyme Assay: Microtubule-stimulated ATPase activity assay is used to measure KIF18A enzyme activity after treatment with compound. Compounds were 2-fold serially diluted in DMSO (Sigma Inc) over 22-point concentration range. Recombinant human KIF18A (1-467 His-tagged) protein was expressed using a baculovirus system and purified by affinity chromatography by Amgen Inc. Concentrations of KIF18A protein, microtubules (MT), and ATP in the reaction were optimized for standardized homogenous enzyme assay using ADP-Glom Kinase/ATPase Assay Kit (Promega Inc). The assay measures ADP formed from the ATPase reaction. […] Read luminescence using EnVision microplate reader with ultra-luminescence module (Perkin Elmer Inc). Concentration-response curve-fitting and IC50 determination was performed using Genedata Screener Software (Standard 15.0.1, Genedata Inc) with a four-parameter logistic regression fit model.
Background: ADP-Glo turns the ADP formed in a reaction into a luminescent signal.

T1 sequence (Q8NI77 1-467): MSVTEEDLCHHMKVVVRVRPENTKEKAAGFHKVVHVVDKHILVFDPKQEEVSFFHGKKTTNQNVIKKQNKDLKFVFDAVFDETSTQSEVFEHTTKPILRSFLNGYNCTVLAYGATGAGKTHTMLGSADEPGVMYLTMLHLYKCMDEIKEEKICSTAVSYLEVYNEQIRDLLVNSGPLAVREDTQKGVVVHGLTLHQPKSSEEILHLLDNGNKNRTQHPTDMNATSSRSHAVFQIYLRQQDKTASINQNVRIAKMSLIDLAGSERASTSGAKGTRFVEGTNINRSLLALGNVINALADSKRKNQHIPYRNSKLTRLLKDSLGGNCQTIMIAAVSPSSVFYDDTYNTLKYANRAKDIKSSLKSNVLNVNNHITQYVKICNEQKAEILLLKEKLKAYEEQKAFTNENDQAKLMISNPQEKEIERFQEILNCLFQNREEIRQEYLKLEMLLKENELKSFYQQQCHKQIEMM
T1 sequence (P02550 whole entry partner): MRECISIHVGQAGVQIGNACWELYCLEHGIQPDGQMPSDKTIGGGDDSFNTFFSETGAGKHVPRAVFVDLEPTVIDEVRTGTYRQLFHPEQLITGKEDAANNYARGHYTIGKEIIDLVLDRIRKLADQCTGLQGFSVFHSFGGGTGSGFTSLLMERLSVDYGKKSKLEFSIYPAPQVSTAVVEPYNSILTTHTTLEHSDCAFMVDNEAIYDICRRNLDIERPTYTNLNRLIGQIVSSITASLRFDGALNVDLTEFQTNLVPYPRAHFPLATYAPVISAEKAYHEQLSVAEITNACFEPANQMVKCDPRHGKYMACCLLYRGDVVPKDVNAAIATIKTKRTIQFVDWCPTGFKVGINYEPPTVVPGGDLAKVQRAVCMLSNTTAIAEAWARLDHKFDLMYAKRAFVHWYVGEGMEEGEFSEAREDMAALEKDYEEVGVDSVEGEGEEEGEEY
T1 sequence (P02554 whole entry partner): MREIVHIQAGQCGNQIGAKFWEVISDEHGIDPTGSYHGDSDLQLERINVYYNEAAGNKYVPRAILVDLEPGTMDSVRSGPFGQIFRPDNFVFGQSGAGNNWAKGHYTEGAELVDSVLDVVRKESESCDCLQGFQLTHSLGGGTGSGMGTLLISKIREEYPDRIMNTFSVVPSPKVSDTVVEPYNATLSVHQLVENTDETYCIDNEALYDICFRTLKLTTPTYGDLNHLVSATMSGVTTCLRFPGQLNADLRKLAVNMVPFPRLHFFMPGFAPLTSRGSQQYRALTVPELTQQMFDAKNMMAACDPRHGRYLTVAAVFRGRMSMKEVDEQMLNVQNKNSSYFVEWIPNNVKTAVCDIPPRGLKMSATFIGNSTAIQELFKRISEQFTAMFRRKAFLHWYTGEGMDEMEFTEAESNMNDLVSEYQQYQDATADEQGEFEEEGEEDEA

Broadly, the IC50 is the concentration that inhibits the measured activity by half. `CC(C)(C)NS(=O)(=O)c1cccc(NC(=O)c2ncc(NC(C)(C)CO)nc2N2CCC3(CC2)CC3)c1F` [Example 101-5, N-(3-(N-(tert-butyl)sulfamoyl)-2-fluorophenyl)-5-((1-hydroxy-2-methylpropan-2-yl)amino)-3-(6-azaspiro[2.5]octan-6-yl)pyrazine-2-carboxamide]: the IC50 worked out at 527 nM.

In the case of `CC(C)(CO)Nc1cnc(C(=O)Nc2cccc(N3CCS(=O)(=O)CC3)c2)c(N2CCC3(CC2)CC3)n1` [Example 101-6, N-(3-(1,1-dioxidothiomorpholino)phenyl)-5-((1-hydroxy-2-methylpropan-2-yl)amino)-3-(6-azaspiro[2.5]octan-6-yl)pyrazine-2-carboxamide], the IC50 worked out at 545 nM.

For the compound `CC(C)(CO)Nc1cnc(C(=O)Nc2cccc(N3CCOCC3)c2)c(N2CCC3(CC2)CC3)n1` [Example 101-7, 5-((1-hydroxy-2-methylpropan-2-yl)amino)-N-(3-morpholinophenyl)-3-(6-azaspiro[2.5]octan-6-yl)pyrazine-2-carboxamide], the IC50 came to 768 nM.

Turning to `CC(C)(CO)Nc1cccc(NC(=O)c2ncc(NC(C)(C)CO)nc2N2CCC3(CC2)CC3)c1` [Example 101-8, 5-((1-hydroxy-2-methylpropan-2-yl)amino)-N-(3-((1-hydroxy-2-methylpropan-2-yl)amino)phenyl)-3-(6-azaspiro[2.5]octan-6-yl)pyrazine-2-carboxamide], the IC50 was found to be 240 nM.

`CC(C)(CO)Nc1cnc(C(=O)Nc2cccc(S(=O)(=O)C3CCCC3)c2)c(N2CCC3(CC2)CC3)n1` [Example 103, N-(3-(Cyclopentylsulfonyl)phenyl)-5-((1-hydroxy-2-methylpropan-2-yl)amino)-3-(6-azaspiro[2.5]octan-6-yl)pyrazine-2-carboxamide]: the 50% inhibitory concentration (IC50) came to 77 nM.

Regarding `CC(C)(CO)Nc1cnc(C(=O)Nc2cccc(S(=O)(=O)N3CCCCC3)c2)c(N2CCC3(CC2)CC3)n1` [Example 103-1, 5-((1-hydroxy-2-methylpropan-2-yl)amino)-N-(3-(piperidin-1-ylsulfonyl)phenyl)-3-(6-azaspiro[2.5]octan-6-yl)pyrazine-2-carboxamide], the IC50 was determined as 135 nM.

As to `O=C(Nc1cccc(S(=O)(=O)C2CCCC2)c1)c1ncc(NC2(CO)CC2)nc1N1CCC2(CC1)CC2` [Example 103-2, N-(3-(cyclopentylsulfonyl)phenyl)-5-((1-(hydroxymethyl)cyclopropyl)amino)-3-(6-azaspiro[2.5]octan-6-yl)pyrazine-2-carboxamide], the IC50 was 143 nM.

Consider `CC(C)(C)NS(=O)(=O)c1cccc(NC(=O)c2ncc(NC3(CO)CC3)nc2N2CCC3(CC2)CC3)c1` [Example 103-3, N-(3-(N-(tert-butyl)sulfamoyl)phenyl)-5-((1-(hydroxymethyl)cyclopropyl)amino)-3-(6-azaspiro[2.5]octan-6-yl)pyrazine-2-carboxamide], for which the concentration for half-maximal inhibition (IC50) turned out to be 139 nM.

As to `CC(C)(O)CNc1cnc(C(=O)Nc2cccc(S(=O)(=O)N3CCCCC3)c2)c(N2CCC3(CC2)CC3)n1` [Example 103-4, 5-((2-hydroxy-2-methylpropyl)amino)-N-(3-(piperidin-1-ylsulfonyl)phenyl)-3-(6-azaspiro[2.5]octan-6-yl)pyrazine-2-carboxamide], the IC50 is 406 nM.

Take `CC(C)(C)NS(=O)(=O)c1cccc(NC(=O)c2ncc(NC(C)(C)CO)nc2-c2ccc(Cl)cc2)c1` [Example 104, N-(3-(N-(tert-butyl)sulfamoyl)phenyl)-3-(4-chlorophenyl)-5-((1-hydroxy-2-methylpropan-2-yl)amino)pyrazine-2-carboxamide]: the half-maximal inhibitory concentration (IC50) turned out to be 135 nM.

Consider `CC(C)(C)NS(=O)(=O)c1cccc(NC(=O)c2ncc(NC(C)(C)CO)nc2-c2ccc(F)cc2)c1` [Example 104-1, N-(3-(N-(tert-butyl)sulfamoyl)phenyl)-3-(4-fluorophenyl)-5-((1-hydroxy-2-methylpropan-2-yl)amino)pyrazine-2-carboxamide], for which the IC50 came out at 418 nM.

On to `CC(C)(C)NS(=O)(=O)c1cccc(NC(=O)c2ncc(NC(C)(C)CO)nc2-c2ccc(C(F)(F)F)cc2)c1` [Example 104-2, N-(3-(N-(tert-butyl)sulfamoyl)phenyl)-5-((1-hydroxy-2-methylpropan-2-yl)amino)-3-(4-(trifluoromethyl)phenyl)pyrazine-2-carboxamide], for which the IC50 is 168 nM.

For the compound `CCc1ccc(-c2nc(NC(C)(C)CO)cnc2C(=O)Nc2cccc(S(=O)(=O)NC(C)(C)C)c2)cc1` [Example 104-3, N-(3-(N-(tert-butyl)sulfamoyl)phenyl)-3-(4-ethylphenyl)-5-((1-hydroxy-2-methylpropan-2-yl)amino)pyrazine-2-carboxamide], the half-inhibitory concentration (IC50) is 146 nM.

For the compound `CC(C)c1ccc(-c2nc(NC(C)(C)CO)cnc2C(=O)Nc2cccc(S(=O)(=O)NC(C)(C)C)c2)cc1` [Example 104-4, N-(3-(N-(tert-butyl)sulfamoyl)phenyl)-5-((1-hydroxy-2-methylpropan-2-yl)amino)-3-(4-isopropylphenyl)pyrazine-2-carboxamide], the half-maximal inhibitory concentration (IC50) stood at 141 nM.

With `CC(C)(C)NS(=O)(=O)c1cccc(NC(=O)c2ncc(NC(C)(CO)CO)nc2N2CCC3(CC2)CC3)c1` [Example 106, N-(3-(N-(tert-butyl)sulfamoyl)phenyl)-5-((1,3-dihydroxy-2-methylpropan-2-yl)amino)-3-(6-azaspiro[2.5]octan-6-yl)pyrazine-2-carboxamide], the IC50 is 103 nM.
